Data taken from the NIST ThermoML archive (doi:10.1021/je060476j).
Numbers after ± are expanded uncertainties.

Experiments:
[1] = Liquid, Ebulliometric method (Recirculating still)
[2] = refractive index (Na D-line) (dimensionless); conditions: 298.15 K; 101.33 kPa; Liquid; Standard Abbe refractometry

In the case of `CCC(C)(C)O` [2-methylbutan-2-ol], the “vapor or sublimation pressure” value ([1]; 375.14 K) is reported as 101.3 ± 0.6 kPa and the refractive index [2] is reported as 1.4018 ± 0.0007.
With `CC(C)O` [propan-2-ol] the “vapor or sublimation pressure” value ([1]; 355.5 K) was 101.3 ± 0.6 kPa and the refractive index [2] was 1.375 ± 0.0007.
With `CO` [methanol] the “vapor or sublimation pressure” value ([1]; 337.68 K) was 101.3 ± 0.6 kPa and the refractive index [2] was 1.3261 ± 0.0007.
